What is called Kd is a measure of binding affinity in units of concentration.

In ChEMBL document CHEMBL3407382, “Syntheses of chondroitin sulfate tetrasaccharide structures containing 4,6-disulfate patterns and analysis of their interaction with glycosaminoglycan-binding protein” (Bioorg Med Chem Lett, 2015) one finds Kd data, which are given here for 8 compounds.

For this assay, the target named is Fibroblast growth factor 2 (Homo sapiens, UniProt P09038). Description: Binding affinity to FGF2 (unknown origin) assessed as change in luminance intensity at 25 degC by SPR imaging sensor method. Background: SPR reads the build-up and loss of mass on a sensor chip optically.
Fibroblast growth factor 2, sequence (P09038 143-288 limits assumed): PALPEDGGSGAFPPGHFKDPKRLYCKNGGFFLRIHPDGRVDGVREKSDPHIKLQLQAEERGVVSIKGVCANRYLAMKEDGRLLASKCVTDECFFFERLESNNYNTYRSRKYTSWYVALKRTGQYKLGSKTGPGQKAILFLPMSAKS

Turning to `CC(=O)N[C@H]1[C@H](O[C@H]2[C@H](O)[C@@H](O)[C@H](O[C@@H]3[C@@H](NC(C)=O)[C@H](OC[C@@H](O)[C@@H](O)[C@H](O)[C@@H](O)CNc4cccc(NC(=O)CCCCC5CCSS5)c4)O[C@H](CO)[C@@H]3OS(=O)(=O)O)O[C@@H]2C(=O)O)O[C@H](COS(=O)(=O)O)[C@H](OS(=O)(=O)O)[C@@H]1O[C@@H]1O[C@H](C(=O)O)[C@@H](O)[C@H](O)[C@H]1O` (stereo partly drawn), the Kd (read-out: Kd) was found to be 5.6 nM.

Regarding `CC(=O)N[C@H]1[C@H](OC[C@@H](O)[C@@H](O)[C@H](O)[C@@H](O)CNc2cccc(NC(=O)CCCCC3CCSS3)c2)O[C@H](COS(=O)(=O)[O-])[C@H](OS(=O)(=O)[O-])[C@@H]1O[C@@H]1O[C@H](C(=O)O)[C@@H](O[C@@H]2O[C@H](COS(=O)(=O)[O-])[C@H](O)[C@H](O[C@@H]3O[C@H](C(=O)O)[C@@H](O)[C@H](O)[C@H]3O)[C@H]2NC(C)=O)[C@H](O)[C@H]1O.[Na+].[Na+].[Na+]` (stereo partly drawn), the Kd result is given as “Not Active”.

Consider `CC(=O)N[C@H]1[C@H](O[C@H]2[C@H](O)[C@@H](O)[C@H](O[C@@H]3[C@@H](NC(C)=O)[C@H](OC[C@@H](O)[C@@H](O)[C@H](O)[C@@H](O)CNc4cccc(NC(=O)CCCCC5CCSS5)c4)O[C@H](COS(=O)(=O)O)[C@@H]3OS(=O)(=O)O)O[C@@H]2C(=O)O)O[C@H](COS(=O)(=O)O)[C@H](OS(=O)(=O)O)[C@@H]1O[C@@H]1O[C@H](C(=O)O)[C@@H](O)[C@H](O)[C@H]1O` (stereo partly drawn), for which, for the setting “read-out: Kd”, the Kd was determined as 5.2 nM.

Take `CC(=O)N[C@H]1[C@H](O[C@H]2[C@H](O)[C@@H](OS(=O)(=O)O)[C@H](O[C@H]3[C@@H](O)[C@@H](COS(=O)(=O)O)O[C@@H](OC[C@@H](O)[C@@H](O)[C@H](O)[C@@H](O)CNc4cccc(NC(=O)CCCCC5CCSS5)c4)[C@@H]3NC(C)=O)O[C@@H]2C(=O)O)O[C@H](COS(=O)(=O)O)[C@H](O)[C@@H]1O[C@@H]1O[C@H](C(=O)O)[C@@H](O)[C@H](O)[C@H]1O` (stereo partly drawn): the Kd result is “Not Active”.

For `CC(=O)N[C@H]1[C@H](OC[C@@H](O)[C@@H](O)[C@H](O)[C@@H](O)CNc2cccc(NC(=O)CCCCC3CCSS3)c2)O[C@H](COS(=O)(=O)O)[C@H](O)[C@@H]1O[C@@H]1O[C@H](C(=O)O)[C@@H](O[C@@H]2O[C@H](COS(=O)(=O)O)[C@H](O)[C@H](O[C@@H]3O[C@H](C(=O)O)[C@@H](O)[C@H](O)[C@H]3OS(=O)(=O)O)[C@H]2NC(C)=O)[C@H](O)[C@H]1OS(=O)(=O)O` (stereo partly drawn), for the setting “read-out: Kd”, the Kd was determined as 48 nM.

For the compound `CC(=O)N[C@H]1[C@H](O[C@H]2[C@H](O)[C@@H](O)[C@H](O[C@H]3[C@@H](O)[C@@H](COS(=O)(=O)O)O[C@@H](OC[C@@H](O)[C@@H](O)[C@H](O)[C@@H](O)CNc4cccc(NC(=O)CCCCC5CCSS5)c4)[C@@H]3NC(C)=O)O[C@@H]2C(=O)O)O[C@H](COS(=O)(=O)O)[C@H](OS(=O)(=O)O)[C@@H]1O[C@@H]1O[C@H](C(=O)O)[C@@H](O)[C@H](O)[C@H]1O` (stereo partly drawn), the Kd (read-out: Kd) turned out to be 8.2 nM.

Consider `CC(=O)N[C@H]1[C@H](O[C@H]2[C@H](O)[C@@H](OS(=O)(=O)O)[C@H](O[C@H]3[C@@H](O)[C@@H](COS(=O)(=O)O)O[C@@H](OC[C@@H](O)[C@@H](O)[C@H](O)[C@@H](O)CNc4cccc(NC(=O)CCCCC5CCSS5)c4)[C@@H]3NC(C)=O)O[C@@H]2C(=O)O)O[C@H](COS(=O)(=O)O)[C@H](OS(=O)(=O)O)[C@@H]1O[C@@H]1O[C@H](C(=O)O)[C@@H](O)[C@H](O)[C@H]1O` (stereo partly drawn), for which, where the note is “read-out: Kd”, the Kd was found to be 4.7 nM.

Regarding `CC(=O)N[C@H]1[C@H](OCC(O)C(O)C(O)C(O)CNc2cccc(NC(=O)CCCCC3CCSS3)c2)O[C@H](COS(=O)(=O)O)[C@H](OS(=O)(=O)O)[C@@H]1O[C@@H]1O[C@H](C(=O)O)[C@@H](O[C@@H]2O[C@H](COS(=O)(=O)O)[C@H](O)[C@H](O[C@@H]3O[C@H](C(=O)O)[C@@H](O)[C@H](O)[C@H]3OS(=O)(=O)O)[C@H]2NC(C)=O)[C@H](O)[C@H]1OS(=O)(=O)O` (stereo partly drawn), the Kd (read-out: Kd) came to 16 nM.
